In patent US9657071B2, “IgE peptide vaccine” (NIPPON ZENYAKU KOGYO CO., LTD., priority 2012, dated 2017):

Legend:
human IgE [1] = experiment: Treatment experiment, dogs artificially sensitized with Dermatophagoides farinae: IgG antibody against human IgE (ELISA); assay type: in vivo; conditions: beagles artificially sensitized with Dermatophagoides farinae, s.c. 1 mg five times
Protocol: Human IgE (Athens Research And Technology, Inc.; IgE, human Myeloma Plasma) was prepared at 1 μg/mL in an immobilization buffer (0.05 M carbonate buffer, pH 9.6), then added at a concentration of 100 μL/well to an ELISA plate, and left overnight at 4° C. The immobilization plate was washed once with PBS-T (0.05%). A blocking solution (4× Block Ace, Snow Brand Milk Products Co., Ltd.; UK-B80) was added thereto at a concentration of 200 μL/well. The plate was blocked by incubation at 37° C. for 1.5 hours. The serum was diluted 1000-fold with a diluent (PBS-T:Block Ace=9:1) and used. The plate was reacted with the serum at 37° C. for 1.5 hours and washed three times with PBS-T (0.05%). An anti-dog IgG antibody (Sheep anti-Dog IgG HRP, Bethyl Laboratories, Inc.; A40-118P) was diluted 2000-fold with a diluent and added thereto as a secondary antibody at a concentration of 100 μL/well. After reaction at 37° C. for 1.5 hours, the plate was washed three times with PBS-T (0.05%). […] Then, the measurement was performed using a plate reader (Bio-Rad Laboratories, Inc.; model 680) (dual: measurement: 450 nm, control: 570 nm). […]
Evaluation: serum was collected, and an IgG antibody against human IgE was assayed by ELISA. […] The IgE antibody against Dermatophagoides farinae was evaluated by ELISA. […]

human IgE [2] = experiment: Test using dog (Part 2): IgG antibody against human IgE (ELISA); assay type: in vivo; conditions: healthy adult beagles 24 months old, s.c. 1 mg five times at 2-week intervals
Protocol: Human IgE (Athens Research And Technology, Inc.; IgE, human Myeloma Plasma) was prepared at 1 μg/mL in an immobilization buffer (0.05 M carbonate buffer, pH 9.6), then added at a concentration of 100 μL/well to an ELISA plate, and left overnight at 4° C. The immobilization plate was washed once with PBS-T (0.05%). A blocking solution (4× Block Ace, Snow Brand Milk Products Co., Ltd.; UK-B80) was added thereto at a concentration of 200 μL/well. The plate was blocked by incubation at 37° C. for 1.5 hours. The serum was diluted 1000-fold with a diluent (PBS-T:Block Ace=9:1) and used. The plate was reacted with the serum at 37° C. for 1.5 hours and washed three times with PBS-T (0.05%). An anti-dog IgG antibody (Sheep anti-Dog IgG HRP, Bethyl Laboratories, Inc.; A40-118P) was diluted 2000-fold with a diluent and added thereto as a secondary antibody at a concentration of 100 μL/well. After reaction at 37° C. for 1.5 hours, the plate was washed three times with PBS-T (0.05%). A substrate solution (citrate buffer supplemented with one TMBZ tablet (Sigma-Aldrich Corp.; T-3405) and further supplemented, immediately before use, with 2 μL of 30% H2O2) was added at a concentration of 100 μL/well to the plate and reacted therewith for 10 minutes. […] Then, the measurement was performed using a plate reader (Bio-Rad Laboratories, Inc.; model 680) (dual: measurement: 450 nm, control: 570 nm). […]

[3] = test system: anti-dog IgE monoclonal antibodies; experiment: Epitope analysis of synthetic IgE CH3 region peptides by ELISA; assay type: binding; conditions: peptide immobilized 100 ng/well, ELISA with anti-IgE monoclonal antibodies
Protocol: Epitope analysis was conducted on mouse monoclonal antibodies binding to a dog IgE antibody and rat monoclonal antibodies binding to dog and mouse IgE antibodies. Mouse anti-dog IgE antibodies (clone name: CCH3-4, CCH5-5, CCH3-12, CCH3-13, CCH3-14, and CCH3-15) were prepared from mice immunized with the dog IgE CH3 (Cε3) region gene. Also, anti-IgE monoclonal antibodies (clone name: X-1, X-2, CCH3-21, and CCH3-22) were prepared from rats immunized with the dog and mouse IgE CH3 (Cε3) region genes. These antibodies were used as samples to synthesize synthetic peptides (SEQ ID NOs: 2 to 20 and 22 to 26) of the dog and mouse IgE peptide CH3 (Cε3) regions consisting of the sequences shown in FIG. 1-1. The epitope analysis was conducted by ELISA. […] The anti-dog IgE monoclonal antibodies that responded to the peptide were detected using secondary antibodies (anti-mouse IgG HRP (horseradish peroxidase)-labeled antibody for the anti-dog IgE antibodies prepared using mice, and anti-rat IgG HRP-labeled antibody for the anti-dog IgE antibodies prepared using rats).

mouse IgE = experiment: Reactivity of serum of peptide-immunized rabbit with mouse IgE (ELISA); assay type: in vivo; conditions: 500 μg peptide + complete adjuvant s.c.
Protocol: 2 mL of the 250 μg/mL peptide (a total of 500 μg) used in Example 2 was mixed with an equal amount of a complete adjuvant (a total of 4 mL). Each rabbit was immunized with this mixture by the subcutaneous administration (amount of the peptide: 500 μg) at day 0 and weeks 2, 4, 6, and 8. Blood was collected 5 weeks after the week-8 administration (week 13 counted from day 0). Booster immunization was performed at week 14 counted from day 0, and blood was further collected 2 weeks thereafter (week 16 counted from day 0). Antibody titers in the collected blood were measured by ELISA. The serum of a rabbit that received no peptide was used as a control.
ELISA was performed by the following method: each […] recombinant CH3 solution of dog IgE, human IgE, mouse IgE, dog IgG, and cat IgE was immobilized at a concentration of 100 μL/well (100 ng/well) to a plate. The serum collected from the immunized rabbit was used (×200 to ×102400) as a primary antibody. An enzyme-labeled anti-rabbit IgG antibody (Zymed Laboratories Inc.) was used as a secondary antibody.

## KKTSVSASQWYTKHHNNATT (listed as Mus musculus) [M4-7-11]
Human IgE [1]
  level of the IgG antibody against IgE: confirmed to elevate
Human IgE [2]
  level of the IgG antibody against IgE: confirmed to elevate

## QEKKTSVSASQWYTKHHNNATTSIT (listed as Mus musculus) [MOUSE CH3-4-17-11]
[3]
  epitope in IgE CH3 region peptide: peptide of an epitope region
Mouse IgE
  response of immobilized mouse IgE to peptide-administered rabbit serum: responded
